Data as given in the NIST ThermoML archive (doi:10.1021/je901020a).

How the values were obtained:
[1] = xn = mol fraction of the nth substance listed; conditions: 101 kPa, Liquid; for speed of sound: Pulse-echo method
[2] = refractive index (Na D-line) (dimensionless); xn = mol fraction of the nth substance listed; conditions: 101 kPa, Liquid, Standard Abbe refractometry

Cc1cc(C)cc(C)c1 [1,3,5-trimethylbenzene] + CC1CCCCC1
Conditions	mass density, [1] [kg/m3]	refractive index, [2]	speed of sound, [1] [m/s]
298.15 K, x2 = 0	861.1	1.49693	1336
298.15 K, x2 = 0.0463	856.7	1.49346	1330
298.15 K, x2 = 0.0962	851.9	1.48973	1323
298.15 K, x2 = 0.197	842.2	1.48211	1310
298.15 K, x2 = 0.2868	833.5	1.47524	1298
298.15 K, x2 = 0.3963	822.8	1.46685	1283
298.15 K, x2 = 0.4972	813	1.45909	1271
298.15 K, x2 = 0.5956	803.4	1.45153	1259
298.15 K, x2 = 0.6974	793.6	1.44373	1247
298.15 K, x2 = 0.7932	784.3	1.43635	1236
298.15 K, x2 = 0.8942	774.8	1.42859	1226
298.15 K, x2 = 0.9497	769.6	1.42444	1220
313.15 K, x2 = 0	848.8	1.48923	1277
313.15 K, x2 = 0.0524	843.8	1.48547	1269
313.15 K, x2 = 0.1075	838.5	1.48144	1262
313.15 K, x2 = 0.2051	829.1	1.47418	1248
313.15 K, x2 = 0.314	818.5	1.466	1233
313.15 K, x2 = 0.4067	809.5	1.45892	1221
313.15 K, x2 = 0.5093	799.5	1.45103	1207
313.15 K, x2 = 0.6083	789.8	1.44335	1195
313.15 K, x2 = 0.7071	780.1	1.43558	1183
313.15 K, x2 = 0.8106	770.1	1.42752	1171
313.15 K, x2 = 0.9093	760.4	1.41983	1159
313.15 K, x2 = 0.9596	755.7	1.41588	1154
